Test results reported in US10196362B2, “Carbamate compound and use thereof” (SUMITOMO CHEMICAL COMPANY, LIMITED, priority 2015, dated 2019).

Tests used:
[1] = tested on: soybean rust (Phakopsora pachyrhizi); test: Test Example 7: soybean rust, foliar spray pot test; format: in vivo; conditions: soybean (Kurosengoku), 200 ppm foliar spray, Formulation Example 6, inoculated after 4 days
[2] = tested on: wheat speckled leaf blotch fungus (Septoria tritici); test: Test Example 5: wheat speckled leaf blotch, foliar spray pot test; format: in vivo; conditions: wheat (Apogee), 500 ppm foliar spray, Formulation Example 6, inoculated after 4 days

Structure (SMILES)	area of the lesion on treated plant relative to untreated plant [1] [%]	area of the lesion on treated plant relative to untreated plant [2] [%]
COC(=O)Nc1ccccc1COc1ccc(-n2cccn2)cc1 [methyl N-(2-{[4-(1H-pyrazol-1-yl)phenoxy)methyl}phenyl)carbamate]	≥ 70	
COC(=O)N(OC)c1ccccc1COc1ccc(-n2nc(C)cc2C)cc1C [methyl N-(2-{[2-methyl-4-(3,5-dimethyl-1H-pyrazol-1-yl)phenoxy]methyl}phenyl)-N-methoxy carbamate]		≥ 70
